Test results published in the supplement of paper PMC10307832.

Legend:
Experiment in all cases: relative viability (nuclei count vs DMSO), 5 days (fraction); higher = more cells survive
[1] = compound: O=C(O)c1ccc2c(c1)nc(Nc1cccc(Cl)c1)c1ccncc12 [Silmitasertib] + N=C(N)NC(=N)NCCc1ccccc1 [Phenformin] (partner 250 µM)
How it was run: (§1)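 Medians of duplicate plates are given as relative viability. That measure is the nuclei count in treated wells divided by the count in vehicle wells. Counts were taken on 4× images of lung cancer cell lines in 1536-well plates, 5 days after pin-tool dosing the day after seeding with one drug alone or a fixed anchor-drug dose plus five library-drug doses (not always all listed) in √10 steps.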

[2] = compound: O=C(O)c1ccc2c(c1)nc(Nc1cccc(Cl)c1)c1ccncc12 [Silmitasertib] + CS(=O)(=O)CCNCc1ccc(-c2ccc3ncnc(Nc4ccc(OCc5cccc(F)c5)c(Cl)c4)c3c2)o1 [Lapatinib] (partner 2 µM)
How it was run: as §1

[3] = compound: O=C(O)c1ccc2c(c1)nc(Nc1cccc(Cl)c1)c1ccncc12 [Silmitasertib] + Nc1nc2[nH]cc(CCc3ccc(C(=O)N[C@@H](CCC(=O)O)C(=O)O)cc3)c2c(=O)[nH]1 [Pemetrexed] (partner 0.2 µM)
How it was run: as §1

[4] = compound: O=C(O)c1ccc2c(c1)nc(Nc1cccc(Cl)c1)c1ccncc12 [Silmitasertib] + CC(=O)c1c(C)c2cnc(Nc3ccc(N4CCNCC4)cn3)nc2n(C2CCCC2)c1=O [Palbociclib] (partner 0.5 µM)
How it was run: as §1

Silmitasertib + Olaparib = compound: O=C(O)c1ccc2c(c1)nc(Nc1cccc(Cl)c1)c1ccncc12 [Silmitasertib] + O=C(c1cc(Cc2n[nH]c(=O)c3ccccc23)ccc1F)N1CCN(C(=O)C2CC2)CC1 [Olaparib] (partner 8 µM)
How it was run: as §1

Row | Cell Line | relative viability ([1]; first compound 0.04 µM) | relative viability ([1]; first compound 0.4 µM) | relative viability ([1]; first compound 1.265 µM) | relative viability ([1]; first compound 4 µM) | relative viability ([2]; first compound 0.04 µM) | relative viability ([2]; first compound 0.4 µM) | relative viability ([2]; first compound 1.265 µM) | relative viability ([2]; first compound 4 µM) | relative viability ([3]; first compound 0.04 µM) | relative viability ([3]; first compound 0.4 µM) | relative viability ([3]; first compound 1.265 µM) | relative viability ([3]; first compound 4 µM) | relative viability ([4]; first compound 0.04 µM) | relative viability ([4]; first compound 0.4 µM) | relative viability ([4]; first compound 1.265 µM) | relative viability ([4]; first compound 4 µM) | relative viability (Silmitasertib + Olaparib; first compound 0.04 µM) | relative viability (Silmitasertib + Olaparib; first compound 0.4 µM) | relative viability (Silmitasertib + Olaparib; first compound 1.265 µM) | relative viability (Silmitasertib + Olaparib; first compound 4 µM)
1 | HCC-44 | 0.267 | 0.234 | 0.117 | 0.12 | 0.968 | 0.916 | 1.02 | 0.699 | 0.63 | 0.667 | 0.71 | 0.661 | 0.975 | 1.06 | 1.01 | 0.959 | 0.972 | 0.822 | 1.06 | 1.02
2 | HCC-78 | 0.678 | 0.517 | 0.707 | 0.594 | 1.15 | 0.511 | 0.187 | 0.322 | 0.91 | 0.886 | 0.613 | 0.918 | 0.521 | 0.432 | 0.497 | 0.455 | 0.92 | 0.42 | 0.509 | 0.734
3 | HCC-366 | 0.698 | 0.42 | 0.6 | 0.24 | 1.2 | – | 0.784 | 0.12 | 0.13 | 0.162 | 0.175 | 0.128 | 0.422 | 0.329 | 0.36 | 0.38 | 0.396 | 0.213 | 0.373 | 0.387
4 | HCC-827 | 0.436 | – | 0.413 | 0.376 | 0.197 | – | 0.193 | 0.135 | 0.282 | – | 0.282 | 0.273 | 0.556 | – | 0.343 | 0.442 | 0.659 | – | 0.705 | 0.735
5 | HOP-62 | 0.624 | – | 0.662 | 0.608 | 1.07 | – | 0.878 | 0.229 | 0.281 | – | 0.269 | 0.301 | 0.466 | – | 0.373 | 0.396 | 0.427 | – | 0.378 | 0.338
6 | IA-LM | – | – | – | – | 1.1 | 0.615 | 0.967 | 0.203 | – | – | – | – | – | – | – | – | 0.899 | 0.561 | 0.791 | 0.614
7 | LC-2-ad | 0.645 | 0.59 | 0.488 | 0.314 | 1.06 | 0.855 | 0.951 | 0.233 | 0.288 | 0.264 | 0.26 | 0.227 | 0.47 | 0.499 | 0.462 | 0.538 | 0.712 | 0.522 | 0.754 | 0.663
8 | LCLC-97TM1 | 0.477 | – | 0.328 | 0.295 | 0.999 | – | 1.04 | 0.192 | 0.187 | – | 0.186 | 0.144 | 0.234 | – | 0.15 | 0.151 | 0.382 | – | 0.213 | 0.234
9 | LCLC-103H | 0.314 | 0.307 | 0.32 | 0.23 | – | – | – | – | 0.49 | 0.394 | 0.416 | 0.378 | 0.462 | 0.45 | 0.266 | 0.389 | 0.817 | 0.719 | 0.641 | 0.664
10 | NCI-H441 | 0.692 | – | 0.739 | 0.335 | – | – | – | – | 0.289 | – | 0.245 | 0.281 | 0.254 | – | 0.206 | 0.178 | 0.604 | – | 0.647 | 0.341
11 | NCI-H522 | 0.669 | 0.554 | 0.626 | 0.678 | – | – | – | – | 0.986 | 0.846 | 1 | 1.15 | 1.02 | 0.801 | 0.903 | 1.04 | 0.633 | 0.58 | 0.774 | 0.592
12 | NCI-H596 | 0.655 | 0.632 | 0.735 | 0.573 | 1.06 | 1.04 | 0.833 | 0.977 | 0.523 | 0.502 | 0.54 | 0.472 | – | – | – | – | 0.659 | 0.597 | 0.685 | 0.654
13 | NCI-H727 | 0.692 | 0.488 | 0.511 | 0.348 | 1.05 | 0.608 | 0.855 | 0.527 | – | – | – | – | 0.64 | 0.529 | 0.648 | 0.681 | 0.709 | 0.59 | 0.584 | 0.681
14 | NCI-H1563 | 0.711 | 0.714 | 0.655 | 0.627 | 1.13 | 0.925 | 0.909 | 0.877 | 0.871 | 0.844 | – | 0.693 | – | – | – | – | – | – | – | –
15 | NCI-H1703 | – | – | – | – | 1.27 | 0.868 | 1.01 | 0.892 | – | – | – | – | – | – | – | – | 0.513 | 0.368 | 0.541 | 0.573
16 | NCI-H2342 | 0.614 | 0.713 | 0.465 | 0.493 | – | – | – | – | 0.77 | – | 0.72 | 0.681 | 0.522 | – | 0.494 | 0.495 | 0.422 | – | 0.434 | 0.426
17 | SW 900 | 0.817 | 0.34 | 0.452 | 0.24 | – | – | – | – | 0.493 | 0.463 | 0.464 | 0.258 | 0.538 | 0.624 | 0.507 | 0.492 | 0.883 | 0.701 | 0.739 | 0.568
